Legend:
Type in all cases: in vivo, human
[1] = tested on: patients with atrial fibrillation or flutter; assay: Placebo-controlled ascending dose study of intravenous tedisamil: conversion to normal sinus rhythm, overall (atrial fibrillation or flutter); settings: for Conversion to NSR at any time within 2.5 hrs after start of infusion (%) / Conversion to NSR at any time within 2.5 hrs after start of infusion (converted/total): Overall, ITT patient sample, patients with DC cardioversion excluded
Procedure: A Multi-Center, Double-Blind, Randomized, Placebo-Controlled, Sequential Ascending Dose Groups Study to evaluate the Efficacy and Safety of Intravenous Tedisamil in the Rapid Conversion to Normal Sinus Rhythm in Patients with Atrial Fibrillation or Flutter was performed.
• Tedisamil (0.4 mg/kg body weight) • Tedisamil (0.6 mg/kg body weight) • Placebo • Dosages were given as a 30 minute intravenous infusion regimen. 1. Study Design
This multicenter trial was a double-blind, randomized, placebo-controlled, ascending dose groups study comparing the efficacy and safety of intravenous tedisamil treatment versus placebo in symptomatic patients with atrial fibrillation or flutter (>3 hours and <48 hours). The primary efficacy endpoint of this study was the termination of atrial fibrillation or flutter (for at least 60 seconds) within 2.5 hours after start of the infusion.
Following screening and baseline assessments, eligible patients were randomized to tedisamil or placebo with a sequential dose escalation approach. In the first stage, patients received 0.4 mg tedisamil/kg body weight or placebo over a 30 minutes infusion period, with half the dose infused during the first 10 minutes and half the dose infused over the remaining 20 minutes. After interim safety evaluation, in the second stage, patients received 0.6 mg tedisamil/kg body weight or placebo, with the same infusion regimen.
Patients were discharged from the telemetry unit 24 hours post infusion and safety follow up was to be obtained after 28 days. Blinded reviews of 12-lead ECGs (including 60 seconds rhythm strip) and 24 hour Holters to adjudicate the clinical endpoint (conversion to normal sinus rhythm) were performed centrally according to standard guidelines.
Tedisamil dihydrochloride, 0.4 mg/kg body weight, 0.6.mg/kg body weight was administered intravenously. The total infusion time was 30 minutes, with half the dose infused within 10 minutes, and half the dose infused within the remaining 20 minutes.
The percentage of patients converted to normal sinus rhythm (for at least 60 seconds) at any time within 2.5 hours after the initiation of the infusion of study drug.
The intent-to-treat patient sample was analyzed for efficacy. All tests were two-sided and a p-value <0.05 was considered significant. Differences in percentages of conversion were compared among the treatment groups using the Pearson chi-square statistic. Safety analysis was conducted on the safety patient sample. Numbers and percentages of patients with adverse events were calculated for each treatment group, using MedDRA preferred terms and body systems. Descriptive statistics were summarized by treatment group for changes from baseline in QT, heart rate and blood pressure.
This first clinical study was a Multi-Center, Double-Blind, Randomized, Placebo-Controlled, Sequential Ascending Dose Groups Study to evaluate the Efficacy and Safety of Intravenous Tedisamil in the Rapid Conversion to Normal Sinus Rhythm in Patients with Atrial Fibrillation or Flutter. The active ingredient used was tedisamil dihydrochloride. The study was designed as a phase II study and executed in 35 to 40 centers in 3 to 4 countries. Study duration: Screening: up to 48 hours; treatment (in-patient): single 30-minute infusion; safety follow up: 24 hours (in-patient) with continuous telemetry and 28 day safety follow up.
The following methodology was applied: A multi-center, double-blind, randomized, placebo-controlled, sequential ascending dose groups study to evaluate the efficacy and safety of intravenous tedisamil versus placebo. The study drug was infused over 30 minutes, receiving half the dose within 10 minutes and half the dose within the remaining 20 minutes. The first patient group received 0.4 mg/kg bodyweight (bw), infused as 0.2 mg/kg bw within 10 minutes, continued with 0.2 mg/kg bw infused within 20 minutes. […]

AF/AFL patients = assay: Single infusion over 10 minutes in AF/AFL patients; settings: intravenous doses of up to 0.24 mg/kg TEDI base, infused over 10 minutes
[2] = tested on: subjects with recent onset atrial fibrillation or flutter; assay: Phase III study of intravenous tedisamil sesquifumarate in subjects with recent onset atrial fibrillation or flutter; settings: second study (Phase III)
Procedure: This second clinical study was a Multi-Center, Double-Blind, Randomized, Placebo-Controlled, Parallel Design Study to evaluate the Efficacy and Safety of Intravenous Tedisamil Sesquifumarate in the Rapid Conversion to Normal Sinus Rhythm in Subjects with Recent Onset Atrial Fibrillation or Flutter.
The active ingredient used was tedisamil sesqifumarate. […] Study duration: Screening: up to 48 hours; treatment (in-patient): single 30-minute infusion; safety follow up: 24 hours (in-patient) with continuous telemetry and 28 day safety follow up. […]

In the case of `C1CCC2(C1)C1CN(CC3CC3)CC2CN(CC2CC2)C1` [Tedisamil, N,N′-dicyclopropylmethyl-9,9-tetramethylene-3,7-diazabicyclo[3,3,1]nonane], the “Conversion to NSR at any time within 2.5 hrs after start of infusion (%)” value (shortened to “Conversion to NSR … (%)”) ([1]; Female, 0.4 mg/kg) is reported as 31.6%, the “Conversion to NSR at any time within 2.5 hrs after start of infusion (converted/total)” value (“Conversion to NSR … (converted/total)” for short) ([1]; Female, 0.4 mg/kg) is reported as 6/19 and the “Conversion to NSR … (%)” value ([1]; Female, 0.6 mg/kg) is reported as 36.4%. The “Conversion to NSR … (converted/total)” value ([1]; Female, 0.6 mg/kg) was 8/22, the “Conversion to NSR … (%)” value ([1]; Male, 0.4 mg/kg) was 45.2% and the “Conversion to NSR … (converted/total)” value ([1]; Male, 0.4 mg/kg) was 19/42. The “Conversion to NSR … (%)” value ([1]; Male, 0.6 mg/kg) was 61.3%, the “Conversion to NSR … (converted/total)” value ([1]; Male, 0.6 mg/kg) was 19/31 and the “Gender difference in conversion rate” value ([1]; first study (Phase II), tedisamil dihydrochloride) was “male patients show a higher conversion rate compared to women”. For the same compound, the “Conversion rates on extension of infusion beyond the times indicated” value ([1]; in vivo) was “did not produce higher conversion rates”, the “Average time to cardioversion after the start of tedisamil administration” value ([1]; patients with atrial fibrillation or flutter of up to 48 hours duration, iv two-step infusion) was 35 min and the “Conversion of atrial fibrillation and flutter to NSR (in words)” value ([1]; two-step infusion regimen) was “effective in conversion of atrial fibrillation and flutter to NSR”. For the same compound, the “Conversions in AF/AFL patients” value (AF/AFL patients) was “did not produce any conversions” and the “Gender difference in conversion rate” value [2] was “male patients show a higher conversion rate compared to women”.

From patent US7087620B2, “Liquid pharmaceutical formulations containing 3,7-diazabicyclo[3,3,1]nonane compounds and methods of treatment relating to anti-arrhythmic events” (Solvay Pharmaceuticals GmbH, priority 2002, dated 2006)
